Reference: patent US4880824A, “Phenyl and benzoyl substituted imidazo-fused heterocyclic calcium channel blockers” (Ortho Pharmaceutical Corporation, priority 1987, dated 1989)
Counter-ions that a name gives are not always drawn.

Tests used:
[1] = test system: calcium dependent smooth muscle contraction (trachea); assay: Inhibition of Calcium Dependent Smooth Muscle Contraction (ICDSMC); set-up: species or system dogs; conditions: Canis lupus familiaris, 50 mM KCl
Procedure: Tracheal rings, one cartilage segment wide (5-10 mm), are cut starting from the bronchial end. After cutting the cartilage, the trachealis muscle tissue is suspended in oxygenated Krebs-Henseleit buffer at 37° C. in a 25 mL tissue bath. After a 60 min equilibration period, the tissues are challenged with 10 μM carbachol. After 5 min the tissues are rinsed and allowed to rest 50 min. The tissues are then challenged with 50 mM KCl and after 30 min, the contractions are quantitated. The tissues are then rinsed and reequilibrated for 50 min. Test compounds are then added for 10 min, and the tissue is rechallenged with 50 mM KCl.
The percent inhibition of smooth muscle contraction is calculated from response data before and after drug treatment according to the following equation. [formula]

[2] = target: T1, calcium channel (specifically bound 3H-nitrendipine, heart membranes) (Oryctolagus cuniculus, UniProt P15381); assay: Nitrendipine Binding Assay (NBA); set-up: species or system New Zealand white rabbits; conditions: for IC50: 3H-nitrendipine 0.05-0.50 nM, 90 min at 4° C., pH 7.4
T1 construct: The heart is immediately removed, cleaned and chopped into small pieces; from tissue; host or cells: heart membranes of female New Zealand white rabbits (42,000×g pellet)
T1 sequence (P15381 whole entry, other chains not shown): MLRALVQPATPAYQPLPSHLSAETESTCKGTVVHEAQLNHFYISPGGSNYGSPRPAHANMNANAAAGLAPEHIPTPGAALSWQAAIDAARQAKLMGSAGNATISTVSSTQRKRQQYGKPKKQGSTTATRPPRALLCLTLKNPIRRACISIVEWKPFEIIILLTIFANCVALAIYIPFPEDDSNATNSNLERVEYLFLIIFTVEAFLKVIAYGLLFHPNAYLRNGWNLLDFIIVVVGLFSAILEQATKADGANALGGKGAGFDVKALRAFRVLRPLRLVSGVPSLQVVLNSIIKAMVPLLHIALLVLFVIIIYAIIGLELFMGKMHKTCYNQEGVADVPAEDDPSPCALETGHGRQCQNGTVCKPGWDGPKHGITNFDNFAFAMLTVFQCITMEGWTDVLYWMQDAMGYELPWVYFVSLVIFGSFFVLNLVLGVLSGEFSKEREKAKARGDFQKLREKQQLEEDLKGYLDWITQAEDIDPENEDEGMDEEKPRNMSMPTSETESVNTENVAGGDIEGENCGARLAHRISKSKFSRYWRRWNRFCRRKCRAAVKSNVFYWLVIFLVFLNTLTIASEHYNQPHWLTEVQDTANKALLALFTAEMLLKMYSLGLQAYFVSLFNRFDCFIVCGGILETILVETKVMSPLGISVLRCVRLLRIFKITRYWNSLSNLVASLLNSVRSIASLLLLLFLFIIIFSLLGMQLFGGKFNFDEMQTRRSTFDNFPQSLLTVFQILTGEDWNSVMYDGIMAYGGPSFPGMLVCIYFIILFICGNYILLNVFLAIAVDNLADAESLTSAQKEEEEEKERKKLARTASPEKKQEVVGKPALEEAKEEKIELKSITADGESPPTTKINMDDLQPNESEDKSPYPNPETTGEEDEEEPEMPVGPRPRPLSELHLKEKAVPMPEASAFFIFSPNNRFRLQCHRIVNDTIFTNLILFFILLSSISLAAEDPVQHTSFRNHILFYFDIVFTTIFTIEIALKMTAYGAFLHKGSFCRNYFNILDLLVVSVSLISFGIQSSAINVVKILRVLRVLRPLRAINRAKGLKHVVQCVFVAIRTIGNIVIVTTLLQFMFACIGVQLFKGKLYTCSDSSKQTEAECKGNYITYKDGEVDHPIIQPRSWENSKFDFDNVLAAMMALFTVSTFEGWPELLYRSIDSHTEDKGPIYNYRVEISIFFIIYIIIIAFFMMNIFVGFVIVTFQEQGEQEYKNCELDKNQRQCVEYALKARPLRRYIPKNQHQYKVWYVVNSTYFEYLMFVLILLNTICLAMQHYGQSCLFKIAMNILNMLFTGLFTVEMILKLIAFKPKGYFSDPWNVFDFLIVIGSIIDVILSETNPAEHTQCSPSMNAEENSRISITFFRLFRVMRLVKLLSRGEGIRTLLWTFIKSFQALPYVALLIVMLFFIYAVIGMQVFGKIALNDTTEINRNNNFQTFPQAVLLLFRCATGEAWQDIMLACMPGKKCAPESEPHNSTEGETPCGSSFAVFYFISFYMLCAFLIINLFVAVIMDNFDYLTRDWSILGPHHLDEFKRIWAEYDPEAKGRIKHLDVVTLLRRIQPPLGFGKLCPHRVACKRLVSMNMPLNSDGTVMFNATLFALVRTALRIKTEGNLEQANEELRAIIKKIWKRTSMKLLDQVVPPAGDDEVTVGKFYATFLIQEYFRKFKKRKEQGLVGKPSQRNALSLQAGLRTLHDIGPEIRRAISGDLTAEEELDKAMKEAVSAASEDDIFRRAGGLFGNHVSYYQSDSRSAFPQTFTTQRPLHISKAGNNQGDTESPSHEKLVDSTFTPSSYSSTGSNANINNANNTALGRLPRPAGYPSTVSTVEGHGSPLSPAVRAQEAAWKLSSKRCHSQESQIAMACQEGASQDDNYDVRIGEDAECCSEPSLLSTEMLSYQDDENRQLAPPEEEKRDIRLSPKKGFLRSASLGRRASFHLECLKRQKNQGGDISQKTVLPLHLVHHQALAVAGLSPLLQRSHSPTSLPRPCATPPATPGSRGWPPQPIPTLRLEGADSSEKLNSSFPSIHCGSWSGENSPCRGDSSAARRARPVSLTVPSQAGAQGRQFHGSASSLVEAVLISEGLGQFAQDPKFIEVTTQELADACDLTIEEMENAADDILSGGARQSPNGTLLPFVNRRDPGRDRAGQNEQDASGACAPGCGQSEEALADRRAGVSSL
T1 sequence (P13806 27-960 partner limits assumed, other chains not shown): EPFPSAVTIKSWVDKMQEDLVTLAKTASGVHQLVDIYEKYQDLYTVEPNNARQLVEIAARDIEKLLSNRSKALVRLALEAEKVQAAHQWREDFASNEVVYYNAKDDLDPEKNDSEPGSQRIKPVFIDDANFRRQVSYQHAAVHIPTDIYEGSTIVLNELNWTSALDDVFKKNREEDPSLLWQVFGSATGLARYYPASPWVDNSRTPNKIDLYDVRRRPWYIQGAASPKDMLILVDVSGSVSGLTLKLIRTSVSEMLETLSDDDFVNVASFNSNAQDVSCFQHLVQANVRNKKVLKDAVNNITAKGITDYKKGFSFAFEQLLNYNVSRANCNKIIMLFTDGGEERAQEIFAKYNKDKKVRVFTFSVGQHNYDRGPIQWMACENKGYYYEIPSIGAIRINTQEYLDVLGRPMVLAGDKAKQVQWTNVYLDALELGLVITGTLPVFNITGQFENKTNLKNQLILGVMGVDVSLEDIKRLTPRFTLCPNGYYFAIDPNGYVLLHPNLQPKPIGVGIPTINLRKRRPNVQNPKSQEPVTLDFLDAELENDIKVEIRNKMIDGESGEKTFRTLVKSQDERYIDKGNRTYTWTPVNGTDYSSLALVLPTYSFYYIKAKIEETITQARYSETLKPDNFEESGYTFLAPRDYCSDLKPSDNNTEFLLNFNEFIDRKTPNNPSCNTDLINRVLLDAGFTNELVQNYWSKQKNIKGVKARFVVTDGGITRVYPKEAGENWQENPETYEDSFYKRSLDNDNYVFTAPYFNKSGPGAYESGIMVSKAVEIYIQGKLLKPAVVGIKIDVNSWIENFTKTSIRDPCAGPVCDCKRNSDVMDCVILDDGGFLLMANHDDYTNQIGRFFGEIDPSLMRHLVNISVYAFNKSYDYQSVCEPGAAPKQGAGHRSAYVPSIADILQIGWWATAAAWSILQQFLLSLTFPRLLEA
T1 sequence (P13806 961-1106 partner limits assumed, other chains not shown): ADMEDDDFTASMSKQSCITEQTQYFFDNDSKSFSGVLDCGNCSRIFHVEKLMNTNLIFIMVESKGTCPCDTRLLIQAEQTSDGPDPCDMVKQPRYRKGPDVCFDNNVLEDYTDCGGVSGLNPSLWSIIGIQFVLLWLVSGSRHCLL
Procedure: The NBA is performed on female, New Zealand white rabbits (1-2 kg) which are sacrificed by cervical dislocation. The heart is immediately removed, cleaned and chopped into small pieces. The tissue is homogenized in 5X volume of 0.05M Hepes buffer, pH 7.4. The homogenate is centrifuged at 4000×g for 10 min; the supernatant is recentrifuged at 42,000×g for 90 min. The resulting membrane pellet is resuspended (0.7 ml/g weight in 0.05M Hepes, pH 7.4 and stored at -70° C. until used. Each tube of the binding assay contains ^3 H-nitrendipine (0.05-0.50nM), buffer, membranes (0.10mL), and test compound in a total volume of 1.0 mL. After 90 min at 4° C., the bound nitrendipine is separated from the unbound by filtration on Whatman GF/C fibers. After rinsing, the filters are dried and counted in a liquid scintillation counter.
Non-specific binding of ^3 H-nitrendipine (that amount bound in the presence of excess unlabelled nitrendipine) is subtracted from the total bound to obtain specifically bound radiolabeled nitrendipine. The amount of specifically bound nitrendipine in the presence of a test compound is compared to that amount bound in the absence of a compound. A percent displacement (or inhibition) can then be obtained.

| SMILES | inhibition at 10 µM [1] [%] | inhibition at 1 µM [1] [%] | IC50 [2] [nM] | inhibition at 20 µM [1] [%] | inhibition at 2 µM [1] [%] | also measured |
| --- | --- | --- | --- | --- | --- | --- |
| CCCCN(CCCC)CCCOc1ccc(C(=O)c2cnc3nc(C)ccn23)cc1 [Example 9b, 3-(4-Dibutylaminopropoxybenzoyl)-7-methylimidazo[1,2-a]-pyrimidine hydrochloride] | 19 | – | – | – | – | – |
| CCCCN(CCCC)CCCOc1ccc(-c2nc3sccn3c2C)cc1 [Example 3, 6-(4-Dibutylaminopropoxyphenyl)-5-methylimidazo[2,1-b]thiazole hydrochloride] | 75 | 11 | 1300 | – | – | – |
| CCCCN(CCCC)CCCOc1ccc(C(=O)c2cnc3ncccn23)cc1 [Example 8c, 3-(4-Dibutylaminopropoxybenzoyl)imidazo[1,2-a]pyrimidine dihydrochloride] | – | 70 | 7000 | – | – | inhibition at 0.1 µM ([1]; @ .1 μM): 37%; inhibition at 0.5 µM ([1]; @ .5 μM): 60% |
| CCCCN(CCCC)CCCOc1ccc(-c2cn3nccnc3n2)cc1 [Example 5, 2-(4-Dibutylaminopropoxyphenyl)imidazo[1,2-b]-1,2,4-triazine hydrochloride] | 45 | – | 600 | 85 | – | – |
| CCCCN(CCCC)CCCOc1ccc(-c2cn3c(n2)sc2ccccc23)cc1 [Example 4, 6-(4-Dibutylaminopropoxyphenyl)imidazo[2,1-b]benzothiadihydrochloride] | – | – | 3100 | 38 | – | – |
| CCCCN(CCCC)CCCOc1ccc(-c2cn3cccnc3n2)cc1 [Example 6, 2-(4-Dibutylaminopropoxyphenyl)imidazo[1,2-a]pyrimidine dihydrochloride] | 46 | – | – | 65 | 26 | inhibition at 68 µM ([2]; @ 68 μM, read-out: NBA percent displacement (or inhibition)): 43% |
| CCCCN(CCCC)CCCOc1ccc(-c2cn3ccc(C)nc3n2)cc1 [Example 7, 2-(4-Dibutylaminopropoxyphenyl)-7-methylimidazo-[1,2-a]pyrimidine trihydrochloride] | 39 | – | – | – | 25 | – |
| CCCCN(CCCC)CCCOc1ccc(-c2cn3ccsc3n2)cc1 [Example 2, 6-(4-Dibutylaminopropoxyphenyl)imidazo[2,1-b]thiazole dihydrochloride] | 55 | 8 | 1500 | 81 | 24 | – |
| CCCCN(CCCC)CCCOc1ccc(-c2cn3nc(C)sc3n2)cc1 [Example 1d, 6-(4-Dibutylaminopropoxyphenyl)-2-methylimidazo[2,1-b]-1,3,4-thiadiazoledihydrochloride] | 82 | 50 | 1100 | – | – | inhibition at 5 µM ([1]; @ 5 μM): 27% |
